Experimental data taken from ChEMBL document CHEMBL2331454, “Synthesis and structure-activity relationship studies of novel dual inhibitors of soluble epoxide hydrolase and 5-lipoxygenase” (J Med Chem, 2013).
pIC50: −log10 of the molar value.

Each compound was assayed against Soluble epoxide hydrolase (Homo sapiens) (assay: Inhibition of human recombinant soluble epoxide hydrolase expressed in Escherichia coli after 30 mins by PHOME-based fluorescence assay).

Compound | pIC50
COc1cc(-c2nc3ccc(Cl)cn3c2NC2CCCCC2)ccc1OCCCNC(=O)Nc1ccc(C(F)(F)F)cc1 | 6.47
O=C(Nc1ccc(Cl)cc1)N1CCC(CO)CC1 | 5.65
COc1cc(-c2nc3ccc(Cl)cn3c2NC(C)C)ccc1OCCCNC(=O)Nc1ccc(C(F)(F)F)cc1 | 6.36
COc1cc(-c2nc3ccc(C)cn3c2NC2CCCCC2)ccc1OCCCNC(=O)NC1CCCCC1 | 6.72
COc1cc(-c2nc3ccc(F)cn3c2NC2CCCCC2)ccc1OCCCNC(=O)Nc1ccc(OC(F)(F)F)cc1 | 6.16
COc1cc(-c2nc3ccc(C)cn3c2NC2CCCCC2)ccc1OCCCNC(=O)Nc1ccc(OC(F)(F)F)cc1 | 6.94
COc1cc(-c2nc3ccc(C)cn3c2NC2CCCC2)ccc1OCCCNC(=O)Nc1ccc(C(F)(F)F)cc1 | 6.21
COc1cc(-c2nc3ccc(F)cn3c2NC2CCCC2)ccc1OCCCNC(=O)Nc1ccc(C(F)(F)F)cc1 | 6.32
Cc1ccc2nc(-c3ccc(OCCCNC(=O)Nc4ccc(C(F)(F)F)cc4)c(Cl)c3)c(NC3CCCCC3)n2c1 | 6.72
COc1cc(-c2nc3ccc(C)cn3c2NC2CCCC2)ccc1OCCCNC(=O)Nc1ccc(OC(F)(F)F)cc1 | 6.33
COc1cc(-c2nc3ccc(C)cn3c2NC2CCCCC2)ccc1OCCCNC(=O)Nc1ccc(C(F)(F)F)cc1 | 6.36
COc1cc(-c2nc3ccc(F)cn3c2NC2CCCCC2)ccc1OCCCNC(=O)Nc1ccc(C(F)(F)F)cc1 | 6.19
COc1ccc(-c2nc3ccc(C)cn3c2NC2CCCCC2)cc1OCCCNC(=O)Nc1ccc(OC(F)(F)F)cc1 | 5.96
COc1cc(-c2nc3ccc(C)cn3c2NC(C)C)ccc1OCCCNC(=O)Nc1ccc(C(F)(F)F)cc1 | 6.21
